Test results published in the CheMixHub ionic liquid set.
± gives the uncertainty stated by the source.

Assay: xn = mol fraction of the nth substance listed
Conditions: 100 kPa, x1 = 0.5

C[N+](C)(CCO)CCOCCO.[Cl-] + NC(N)=O
Conditions	viscosity [mPa·s]
283.15 K	19700 ± 2600
288.15 K	10900 ± 1300
293.15 K	5978 ± 650
298.15 K	3500 ± 340
303.15 K	2189 ± 190
308.15 K	1389 ± 110
313.15 K	903 ± 60
318.15 K	616 ± 36
323.15 K	424 ± 22
328.15 K	305 ± 14
333.15 K	221 ± 8
338.15 K	166 ± 5
343.15 K	126 ± 4
348.15 K	97.9 ± 2.3
353.15 K	77.4 ± 1.6
